The target in one test is T1, human AQP3 (HsAQP3) (Homo sapiens, UniProt Q92482).
T1 construct: cDNA heterologously expressed in Xenopus laevis oocytes (10 ng cRNA)
T1 sequence (Q92482 1-292): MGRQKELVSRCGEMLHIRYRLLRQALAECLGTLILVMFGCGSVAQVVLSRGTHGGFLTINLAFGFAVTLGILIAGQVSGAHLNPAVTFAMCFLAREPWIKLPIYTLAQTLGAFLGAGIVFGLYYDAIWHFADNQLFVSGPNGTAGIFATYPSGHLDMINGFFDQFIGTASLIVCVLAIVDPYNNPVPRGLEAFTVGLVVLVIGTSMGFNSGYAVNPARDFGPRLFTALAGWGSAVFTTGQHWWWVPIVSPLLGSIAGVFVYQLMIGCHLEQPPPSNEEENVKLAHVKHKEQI
Nature of the test: oocyte swelling assay, osmotic water permeability (Pf). It counts as cell-based.

A further test concerns the target T2, Aqp3a (SaAqp3a) (Sparus aurata, UniProt A0A671Y259).
T2 construct: cDNA heterologously expressed in Xenopus laevis oocytes (10 ng cRNA); calculated monomer mass 33 kDa
T2 sequence (A0A671Y259 1-302): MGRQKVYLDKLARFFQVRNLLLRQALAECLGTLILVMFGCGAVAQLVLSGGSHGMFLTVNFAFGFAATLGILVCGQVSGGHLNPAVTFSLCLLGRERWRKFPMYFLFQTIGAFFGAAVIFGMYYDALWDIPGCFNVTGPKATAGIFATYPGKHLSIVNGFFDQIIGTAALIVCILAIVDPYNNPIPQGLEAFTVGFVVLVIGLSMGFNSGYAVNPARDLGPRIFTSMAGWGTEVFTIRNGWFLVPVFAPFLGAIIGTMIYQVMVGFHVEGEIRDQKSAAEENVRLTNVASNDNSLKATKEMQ
The description is as above. It counts as cell-based.

By inhibition is commonly meant the percentage by which the read-out fell short of the control. A higher inhibition goes with a strong effect. In the case of `O=C(Nc1csc([N+](=O)[O-])c1)Nc1c(Cl)cccc1Cl` [DFP00173], the inhibition at 10 µM turned out to be 66 ± 4% against human AQP3 (HsAQP3) and 76 ± 4% against Aqp3a (SaAqp3a).

The values are drawn from article PMC11395232, “Aquaporin-3a Dysfunction Impairs Osmoadaptation in Post-Activated Marine Fish Spermatozoa” (International Journal of Molecular Sciences, 2024).
